# Laboratory results from patent US11229683B2, “Hematopoietic growth factor proteins and analogs thereof and angiotensin converting enzyme inhibitors for treatment of radiation exposure” (priority 2015, dated 2022).
# Residue numbers refer to the chain shown, from its start. Numbers in names are those of the source. Read-outs that look alike come from different tables or passages of the source. Marks after values point to notes of the source that are not given here.
# T1: plasma ACE activity (Mus musculus, UniProt P09470)
# T1 construct: host or cells: plasma of perindopril-treated mice (endogenous enzyme)
# T1 sequence (P09470 35-1237 limits assumed): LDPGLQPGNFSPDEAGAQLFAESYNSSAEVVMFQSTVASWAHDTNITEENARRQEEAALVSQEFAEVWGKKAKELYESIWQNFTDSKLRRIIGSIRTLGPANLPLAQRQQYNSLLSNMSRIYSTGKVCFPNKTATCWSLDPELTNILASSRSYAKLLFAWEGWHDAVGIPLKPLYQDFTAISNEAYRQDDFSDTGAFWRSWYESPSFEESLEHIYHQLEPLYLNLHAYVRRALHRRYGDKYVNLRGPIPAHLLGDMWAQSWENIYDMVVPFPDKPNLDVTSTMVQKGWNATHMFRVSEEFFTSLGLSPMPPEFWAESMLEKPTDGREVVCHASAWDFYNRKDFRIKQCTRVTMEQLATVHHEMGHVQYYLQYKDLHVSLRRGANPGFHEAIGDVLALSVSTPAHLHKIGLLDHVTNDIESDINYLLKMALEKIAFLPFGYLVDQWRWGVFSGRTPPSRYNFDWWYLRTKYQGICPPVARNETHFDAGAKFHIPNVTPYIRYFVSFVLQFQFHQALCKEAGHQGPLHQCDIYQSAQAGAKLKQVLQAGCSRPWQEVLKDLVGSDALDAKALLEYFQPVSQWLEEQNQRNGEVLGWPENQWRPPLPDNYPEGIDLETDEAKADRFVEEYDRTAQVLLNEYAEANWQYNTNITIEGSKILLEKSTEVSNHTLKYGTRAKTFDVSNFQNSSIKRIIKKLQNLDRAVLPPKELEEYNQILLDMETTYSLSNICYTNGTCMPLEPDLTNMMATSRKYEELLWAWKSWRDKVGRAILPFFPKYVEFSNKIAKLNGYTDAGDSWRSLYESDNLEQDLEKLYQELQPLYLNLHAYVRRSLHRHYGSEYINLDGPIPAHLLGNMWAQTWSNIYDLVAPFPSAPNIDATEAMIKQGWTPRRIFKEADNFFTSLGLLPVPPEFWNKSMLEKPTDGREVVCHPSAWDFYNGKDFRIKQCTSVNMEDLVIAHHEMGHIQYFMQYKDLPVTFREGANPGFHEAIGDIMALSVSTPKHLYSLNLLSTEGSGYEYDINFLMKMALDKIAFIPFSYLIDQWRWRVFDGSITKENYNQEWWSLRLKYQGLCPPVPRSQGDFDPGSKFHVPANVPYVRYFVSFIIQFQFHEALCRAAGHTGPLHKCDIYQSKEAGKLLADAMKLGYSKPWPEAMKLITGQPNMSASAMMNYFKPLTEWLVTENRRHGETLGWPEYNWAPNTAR
# B1: PEG GM-CSF: the murine BBT-007 GM-CSF homolog T3C modified with a 40 kDa-PEG (protein, UniProt P01587 18-141, looked up, variant T3C)
# Granulocyte-macrophage …: APCRSPITVTRPWKHVEAIKEALNLLDDMPVTLNEEVEVVSNEFSFKKLTCVQTRLKIFEQGLRGNFTKLKGALNMTASYYQTYCPPTPETDCETQVTTYADFIDSLKTFLTDIPFECKKPGQK
# modifications: 40 kDa PEG
# notes: the murine BBT-007 GM-CSF homolog T3C modified with a 40 kDa-PEG
# B2: muGM-CSF: non-long-acting murine GM-CSF (protein, UniProt P01587 18-141, looked up)
# Granulocyte-macrophage …: B1 Granulocyte-macrophage … with C3T
# Key:
# 7.5 Gy-irradiated mice = details: cited from earlier work
# 7 Gy-irradiated rats = details: 7 Gy rats; captopril 0.3 g/L in drinking water from day −7 to Day 0; cited from earlier work
# 8.25 Gy-irradiated mice = details: cited from earlier work
# 8.3 Gy irradiated mice = details: cited from earlier work; for 48-day survival vs water: 8.3 Gy
# plasma ACE activity = target: T1, plasma ACE activity; details: all 3 doses: 10, 30, or 90 mg/kg sc twice per day; cited from earlier work
# lethally irradiated rats = details: 13 Gy leg-out TBI, TC sc day 1, Lisinopril in drinking water Day 7 to Day 150, 12 rats/group
# Text: Female WAG/RijCmcr rats were irradiated with 13 Gy at 12 weeks of age when they weighed ˜150-170 gm. Briefly, animals were immobilized in a plexiglass jig to avoid anesthetic. One hind leg was shielded with a one-quarter inch thick lead block. Shielding one leg from radiation exposure is sufficient to prevent death from hematopoietic failure during the following 40 days. […] The x-ray system was operated at 320 kVp and 13 mAs with a half value layer of 1.4 mm Cu. During the irradiation, each rat was confined in a separate chamber in a plastic jig, which allowed irradiation of 2 rats simultaneously. The chambers were placed on a plane perpendicular to the beam direction with distance from source to the midline of rats to be set at 33.5 cm. Collimator jaws were used to define a radiation field large enough to cover both chambers with adequate margin (at least 2 cm). Irradiated rats were given supportive care between days 2 to 14 post-TBI to mitigate acute gastrointestinal injury. This supportive care consisted of sc injections of saline (40 mL/kg/day) from days 3 to 7 post-TBI and the antibiotic enrofloxacin (10 mg/kg/day), given orally in the drinking water from days 2 to 14 post-TBI.
# This study comprised four test groups, each consisting of 12 rats (Table 7). Rats received a single sc injection of vehicle solution (10 mM sodium phosphate, 4% mannitol, 1% sucrose pH 6.2) or an HGF triple combination (TC) at 24+4/−0 hr post-irradiation. […] Morbidity and survival of the animals were measured over time. Rats were euthanized if their body condition reached IACUC criteria for euthanasia or if their blood urea nitrogen (BUN) was measured at or above 120 mg/mL, which is an indicator if severe kidney damage. Euthanized animals are classified as non-survivors. Death prior to day 40 in this model typically occurs as a result of hematopoietic failure (H-ARS) or gastrointestinal injury (GI-ARS). Death between days 40 and 90 typically occurs as a result of lung damage, particularly pneumonitis. Death between days 90 and 150 typically occurs as a result of kidney damage (nephropathy). Morbidity at Day 40, 90 and 150 were chosen as representative times for death due to H-ARS, lung damage, and a combination of lung damage and kidney damage, respectively.
# irradiated rats [1] = assay: Rat 13 Gy leg-out TBI model, renal injury by blood urea nitrogen (BUN); assay type: in vivo; details: surviving animals, TC day 1, Lisinopril Day 7 to Day 150
# Method: Euthanized animals are classified as non-survivors.
# Blood urea nitrogen (BUN) measurements were made as a separate measure of kidney damage in surviving animals on Days 90, 120 and 150 (Table 8). BUN measurements are a commonly used measure of kidney function, with higher BUN numbers indicating greater kidney damage. Normal rat BUN measurements for non-irradiated rats are in the 17-22 mg/dL range. Rats were euthanized if BUN measurements were at or above 120 mg/dL.
# irradiated rats [2] = assay: Rat 13 Gy leg-out TBI model, transthoracic echocardiography on day 50, Example 8; assay type: in vivo
# Method: Non-irradiated rats (0 Gy) served as controls. On day 50, the rats were anesthetized with isoflurane (2%) and transthoracic echocardiography was performed. Measurements were obtained by an investigator who was blinded to the treatment groups. Animals were studied in the left lateral decubitus position and data was recorded with a Vivid 7 echocardiographic system (General Electric, Waukesha, Wis.).
# irradiated mice = assay: Mouse ARS survival assay, PEG-muGM-CSF, 853 or 872 cGy, Example 5; assay type: in vivo; details: for % 30-d survival: listed as PEG-muGM-CSF, 1 mg/kg; for # survivors/total mice: 30 days
# Method: At the higher 872 cGy radiation dose, 70% of mice treated once with PEG-muGM-CSF at 24 h post-TBI were still alive at 30 days, compared to 10% of vehicle-treated mice.
# LD95/30 irradiated mice = assay: Mouse ARS survival assay, LD95/30 (927 cGy), Example 1; assay type: in vivo; details: LD95/30 (927 cGy) TBI, single sc injection 24 h post-irradiation; for % 30-d survival: PEG IL-11 0.3 mg/kg, PEG-G-CSF 1 mg/kg, PEG muGM-CSF 1 mg/kg, 40 mice/group
# Method: The efficacy of three individual HGFs and all possible combinations of the 3 proteins to increase 30 day survival of lethally irradiated mice was tested at an LD95/30 radiation dose (a dose of radiation expected to cause death to 95% of an exposed population within 30 days). […] Male and female mice (Mus musculus, C57BL/6 strain), aged 10-12 weeks upon study initiation, were used for these studies. There were 40 animals per treatment group, 50% males and 50% females. A dose of radiation equal to the LD95/30 was delivered as a single uniform total body dose (TBD) of gamma radiation from a ^137Cs radiation source (GammaCell 40; Nordion International, Kanata, Ontario, Canada) at an exposure rate of 98.575-100.3±5.01 cGy/minute. Pilot studies determined the LD95/30 dose of radiation to be 927 cGy. […] Each group of mice irradiated together in the same irradiation pie was roughly divided among all groups to ensure that each group received the same irradiation exposure conditions. After irradiation mice were randomized to one of the Test Article or Control Article groups. Mice were provided acidified water (pH 2.0-3.0) in bottles and fed certified commercial extruded laboratory animal chow (HARLAN 2018SXC) throughout the study. On day 4 post-exposure, mice were provided acidified autoclaved water in bottles and also in wetted chow (HARLAN 2018SXC) in a petri dish set in the bottom of the cage. Mice were monitored for survival once per day until signs of early euthanasia appear, then twice per day until day 30. Mice meeting predetermined euthanasia criteria were euthanized.
# Complete Blood Cell Counts (CBCs) with differential and peripheral smears were performed at baseline (pre-irradiation) and on days 10, 20, 25, and 30 post-TBI. Two randomly selected mice/group in different cages were bled on day −3 to day −1 prior to TBI for a total of 12 baseline CBCs. Four randomly selected mice/group were bled on days 10, 20, 25, and 30 post-TBI. When possible, the same number of males and females in each group and in separate cages were selected for bleeding. […]
# LD65/30 irradiated mice = assay: Mouse ARS survival assay, LD65/30 (872 cGy), Example 10; assay type: in vivo; details: single sc injection 24 h post-irradiation
# Method: The efficacy of three individual HGFs and all possible combinations of the 3 proteins to increase 30 day survival of lethally irradiated mice was tested at an LD65/30 radiation dose (a dose of radiation expected to cause death to 65% of an exposed population within 30 days). This experiment was performed as described in Example 1 except that the radiation dose used was 872 cGy and there were 20 mice per test group (10 males/10 females). The three HGFs were the same ones used in Example 1.
# [3] = test system: LD65/30 irradiated one year old mice; assay: Mouse ARS survival assay in one year old mice, 10 Gy (LD65/30), Example 4; assay type: in vivo; details: single sc injection 24 h post-TBI
# Text: One year old mice are a model for geriatric humans, which often respond differently to radiation exposure and drugs. One year old mice were exposed to different doses of radiation to construct a radiation dose response curve. […] The LD50/30 for one year old mice was 959 cGy, compared to 853 cGy for 12 week old mice. […] Other study details were as described in Example 1 and in Plett et al. (Plett, P A, et al. (2012) Establishing a murine model of the Hematopoietic Syndrome of the Acute Radiation Syndrome. Health Physics 103: 343-355; Plett, P. A., et al. (2014) PEGylated G-CSF (BBT-015), GM-CSF (BBT-007), and IL-11 (BBT-059) analogs enhance survival and hematopoietic cell recovery in a mouse model of the Hematopoietic Syndrome of the Acute Radiation Syndrome. Health Physics Journal 106: 7-20). Mice received one sc injection of the individual test proteins or all possible combinations of the test proteins 24+4/−0 hours post-TBI. Doses of the drugs administered were 1 mg/kg for PEG-G-CSF, 1 mg/kg for PEG-murine GM-CSF, and 0.3 mg/kg for PEG-IL-11.
# lethally irradiated mice = details: single sc injection; cited from earlier work
# [4] = sc 30 mg/kg twice per day for 4 days starting 48 hours before irradiation
# [5] = Lisinopril Day 7 to Day 50, mean ± SD, 8 rats
# [6] = 853 cGy, 1 mg/kg single sc at 24 h post-TBI
# [7] = 872 cGy, 1 mg/kg single sc at 24 h post-TBI
molecule,measurement,setting,value
C[C@H](CS)C(=O)N1CCC[C@H]1C(=O)O [Captopril],30-day survival,7.5 Gy-irradiated mice; captopril 0.55 g/L in drinking water from day −7 until Day 0,0%
same,30-day survival,7.5 Gy-irradiated mice; captopril from day 0 (1 hour post-TBI) until Day 30 post-TBI,100%
same,30-day survival,7.5 Gy-irradiated mice; captopril from day 1 (24 h) post-TBI until Day 7 post-TBI,85%
same,30-day survival,7.5 Gy-irradiated mice; captopril from day −7 prior to TBI until Day 30 post-TBI,15%
same,30-day survival,7 Gy-irradiated rats,24%
same,30-day survival,"8.25 Gy-irradiated mice; captopril 0.55 g/L in drinking water from day 1 to day 30 post-TBI, genestein (if given) 200 mg/kg sc 24 h pre-TBI",45%
same,30-day survival,"8.25 Gy-irradiated mice; captopril from day 0 (1 h post-TBI) to day 30, genestein (if given) 200 mg/kg sc 24 h pre-TBI",55%
CCC[C@H](N[C@@H](C)C(=O)N1[C@H](C(=O)O)C[C@@H]2CCCC[C@@H]21)C(=O)OCC [perindopril],48-day survival vs water,8.3 Gy irradiated mice; sc 10 mg/kg twice per day for 4 days starting 48 hours before irradiation,did not significantly improve
same,48-day survival vs water,8.3 Gy irradiated mice; [4],did significantly improve survival
same,48-day survival vs water,8.3 Gy irradiated mice; sc 90 mg/kg twice per day for 4 days starting 48 hours before irradiation,did significantly improve survival
same,30-day survival versus water,8.3 Gy irradiated mice; [4],improved 30-day survival
same,inhibition of plasma ACE activity,plasma ACE activity,100%
NCCCC[C@H](N[C@@H](CCc1ccccc1)C(=O)O)C(=O)N1CCC[C@H]1C(=O)O [Lisinopril],Survival (%) Day 40,lethally irradiated rats,100%
same,Survival (%) Day 150,lethally irradiated rats,92%
same,Survival (%) Day 90,lethally irradiated rats; listed as Vehicle + Lisinopril,92%
same,Survival (%) Day 90,lethally irradiated rats; listed as Vehicle plus Lisinopril,100%
same,"BUN Day 120, median (20th-80th percentile)",irradiated rats [1],23 (20-24) * mg/dL
same,"BUN Day 150, median (20th-80th percentile)",irradiated rats [1],25 (22-27) ** mg/dL
same,Cardiac Output,irradiated rats [2]; [5],170.1 ± 36.4 mL/min
same,End Systolic Volume,irradiated rats [2]; [5],0.125 ± 0.04 mL
same,End-Diastolic Volume,irradiated rats [2]; [5],0.585 ± 0.08 mL
same,Left Ventricle Internal Diameter systole,irradiated rats [2]; [5],0.364 ± 0.03 cm
same,Left Ventricle Mass,irradiated rats [2]; [5],0.919 ± 0.04 grams
same,Left Ventricle Posterior Wall diastole,irradiated rats [2]; [5],0.109 ± 0.01 cm
same,Left Ventricular Internal Dimension (diastole),irradiated rats [2]; [5],0.57 ± 0.17 cm
same,Stroke volume,irradiated rats [2]; [5],0.460 ± 0.06 mL
same,radiation-induced changes to heart parameters,irradiated rats [2]; Lisinopril on days 7 to 50,prevented or reduced radiation-induced changes
B1,"% of mice that survived 30 days, pooled data from the two radiation doses","irradiated mice; 853 and 872 cGy pooled, 1 mg/kg single sc at 24 h post-TBI",77.5%
same,% 30-d survival,irradiated mice; [6],85%
same,% 30-d survival,irradiated mice; [7],70%
same,# survivors/total mice,irradiated mice; [6],17/20
same,# survivors/total mice,irradiated mice; [7],14/20
same,hematopoietic recovery (CBC) vs vehicle,"irradiated mice; day 20 post-TBI, 853 and 872 cGy",accelerated hematopoietic recovery
same,# survivors/total mice,LD95/30 irradiated mice; 30 days,13/40
same,% 30-d survival,LD95/30 irradiated mice,32.5%
same,% 30-d survival,LD95/30 irradiated mice; listed as PEG-GM-CSF,33%
same,# survivors/total mice,LD65/30 irradiated mice; 30 days,14/20
same,% 30-d survival,"LD65/30 irradiated mice; PEG IL-11 0.3 mg/kg, PEG-G-CSF 1 mg/kg, PEG muGM-CSF 1 mg/kg, 20 mice/group",70%
same,# survivors/total mice,[3]; 30 days,11/20
same,% 30-d survival,"[3]; PEG IL-11 0.3 mg/kg, PEG-G-CSF 1 mg/kg, PEG muGM-CSF 1 mg/kg",55%
B2,30-day survival of lethally irradiated mice,lethally irradiated mice,does not improve 30-day survival
